This is an account of results in publication PMC6437697 (Journal of Medicinal Chemistry, 2019).

SMILES strings stand for the structures.

Holding throughout (assay): KINOMEscan
What all share (format): binding
Holding throughout (conditions): read-out: % control activity remaining

The target of one experiment is T1, CAMK4 (Homo sapiens, UniProt Q16566).
T1 construct: purchased Eurofins DiscoverX KINOMEscan

A further experiment deals with T2, CSNK1A1 (Homo sapiens, UniProt P48729).
T2 construct: purchased Eurofins DiscoverX KINOMEscan

The next experiment concerns the target T3, ERBB2 (Homo sapiens, UniProt P04626).
T3 construct: purchased Eurofins DiscoverX KINOMEscan

The next experiment addresses T4, ERK2 (Homo sapiens, UniProt P28482).
T4 construct: purchased Eurofins DiscoverX KINOMEscan

The target of a further experiment is T5, FER (Homo sapiens, UniProt P16591).
T5 construct: purchased Eurofins DiscoverX KINOMEscan

For another experiment, the target named is T6, GSK3A (Homo sapiens, UniProt P49840).
T6 construct: purchased Eurofins DiscoverX KINOMEscan

The target in a further experiment is T7, LYN (Homo sapiens, UniProt P07948).
T7 construct: purchased Eurofins DiscoverX KINOMEscan

In the next experiment the target is T8, MELK (Homo sapiens, UniProt Q14680).
T8 construct: purchased Eurofins DiscoverX KINOMEscan

The target in the next experiment is T9, NIM1 (Homo sapiens, UniProt Q8IY84).
T9 construct: purchased Eurofins DiscoverX KINOMEscan

The target of the next experiment is T10, ROCK2 (Homo sapiens, UniProt O75116).
T10 construct: purchased Eurofins DiscoverX KINOMEscan

The target of another experiment is T11, SgK110 (Homo sapiens, UniProt P0C264).
T11 construct: purchased Eurofins DiscoverX KINOMEscan
T11 sequence (P0C264 1-359): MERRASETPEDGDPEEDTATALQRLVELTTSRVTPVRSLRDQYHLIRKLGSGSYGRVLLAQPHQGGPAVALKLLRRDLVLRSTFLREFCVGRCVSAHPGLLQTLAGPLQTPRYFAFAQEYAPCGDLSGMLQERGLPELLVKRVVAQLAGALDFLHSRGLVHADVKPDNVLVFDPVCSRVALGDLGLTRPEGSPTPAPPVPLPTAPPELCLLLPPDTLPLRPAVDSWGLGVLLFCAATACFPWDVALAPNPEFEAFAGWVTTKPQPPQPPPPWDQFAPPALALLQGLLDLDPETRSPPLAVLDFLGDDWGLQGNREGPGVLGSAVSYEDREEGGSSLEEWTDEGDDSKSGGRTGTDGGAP

The target in another experiment is T12, YSK4 (Homo sapiens, UniProt Q56UN5).
T12 construct: purchased Eurofins DiscoverX KINOMEscan
T12 sequence (Q56UN5 1-1328): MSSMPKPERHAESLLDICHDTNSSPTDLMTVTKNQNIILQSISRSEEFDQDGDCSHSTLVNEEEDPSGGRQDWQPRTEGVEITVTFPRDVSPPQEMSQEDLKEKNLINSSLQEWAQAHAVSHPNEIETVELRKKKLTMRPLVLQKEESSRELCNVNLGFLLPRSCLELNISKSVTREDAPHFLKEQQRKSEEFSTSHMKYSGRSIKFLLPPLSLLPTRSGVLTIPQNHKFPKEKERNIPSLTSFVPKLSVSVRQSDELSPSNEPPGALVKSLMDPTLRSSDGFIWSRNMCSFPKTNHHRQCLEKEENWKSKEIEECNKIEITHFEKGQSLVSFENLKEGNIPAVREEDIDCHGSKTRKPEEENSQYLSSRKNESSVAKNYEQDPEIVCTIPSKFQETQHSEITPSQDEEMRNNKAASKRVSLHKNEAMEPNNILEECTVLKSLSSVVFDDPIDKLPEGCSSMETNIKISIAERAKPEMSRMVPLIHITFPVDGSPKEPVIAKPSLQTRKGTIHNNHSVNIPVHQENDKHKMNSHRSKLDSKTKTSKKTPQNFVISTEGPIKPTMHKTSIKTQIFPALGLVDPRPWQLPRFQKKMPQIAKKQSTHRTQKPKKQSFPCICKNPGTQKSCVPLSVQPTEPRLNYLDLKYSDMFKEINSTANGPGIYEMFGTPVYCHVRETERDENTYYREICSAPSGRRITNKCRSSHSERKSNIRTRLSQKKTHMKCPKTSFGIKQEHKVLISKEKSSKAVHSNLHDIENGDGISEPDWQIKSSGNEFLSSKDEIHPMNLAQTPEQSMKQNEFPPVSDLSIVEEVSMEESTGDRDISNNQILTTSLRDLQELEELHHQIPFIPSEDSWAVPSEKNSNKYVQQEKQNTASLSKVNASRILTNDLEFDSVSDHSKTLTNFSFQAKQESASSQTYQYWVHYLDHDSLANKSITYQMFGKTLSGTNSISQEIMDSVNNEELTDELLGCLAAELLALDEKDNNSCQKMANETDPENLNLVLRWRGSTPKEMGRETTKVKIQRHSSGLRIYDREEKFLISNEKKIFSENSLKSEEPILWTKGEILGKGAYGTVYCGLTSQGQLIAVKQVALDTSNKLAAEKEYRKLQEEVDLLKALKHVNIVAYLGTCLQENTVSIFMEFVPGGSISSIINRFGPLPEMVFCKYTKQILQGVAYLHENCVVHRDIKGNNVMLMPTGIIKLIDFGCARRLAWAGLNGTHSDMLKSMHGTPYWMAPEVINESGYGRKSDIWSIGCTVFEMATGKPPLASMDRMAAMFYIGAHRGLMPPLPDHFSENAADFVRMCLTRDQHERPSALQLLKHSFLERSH

T9 sequence (Q8IY84 whole entry): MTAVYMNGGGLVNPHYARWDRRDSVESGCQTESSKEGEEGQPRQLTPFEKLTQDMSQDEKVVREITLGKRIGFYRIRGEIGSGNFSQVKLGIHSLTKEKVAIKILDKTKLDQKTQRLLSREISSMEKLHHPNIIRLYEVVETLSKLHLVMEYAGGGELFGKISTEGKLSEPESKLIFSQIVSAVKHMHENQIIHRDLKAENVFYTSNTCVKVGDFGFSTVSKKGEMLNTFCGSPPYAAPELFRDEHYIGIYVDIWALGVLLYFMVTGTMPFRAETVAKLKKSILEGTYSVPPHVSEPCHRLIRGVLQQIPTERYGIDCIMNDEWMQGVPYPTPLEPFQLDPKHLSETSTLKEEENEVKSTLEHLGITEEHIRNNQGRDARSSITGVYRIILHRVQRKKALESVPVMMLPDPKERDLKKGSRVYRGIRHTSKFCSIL
T4 sequence (P28482 whole entry): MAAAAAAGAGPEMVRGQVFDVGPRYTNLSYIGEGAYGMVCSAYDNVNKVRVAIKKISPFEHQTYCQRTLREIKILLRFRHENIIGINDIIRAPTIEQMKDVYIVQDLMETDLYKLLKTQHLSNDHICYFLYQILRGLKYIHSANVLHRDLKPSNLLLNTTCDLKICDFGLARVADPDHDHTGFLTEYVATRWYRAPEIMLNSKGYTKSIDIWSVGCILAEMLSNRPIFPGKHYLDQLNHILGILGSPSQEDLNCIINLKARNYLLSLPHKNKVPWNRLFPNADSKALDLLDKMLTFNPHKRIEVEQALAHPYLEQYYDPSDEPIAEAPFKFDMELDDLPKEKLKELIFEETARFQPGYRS
T2 sequence (P48729 whole entry): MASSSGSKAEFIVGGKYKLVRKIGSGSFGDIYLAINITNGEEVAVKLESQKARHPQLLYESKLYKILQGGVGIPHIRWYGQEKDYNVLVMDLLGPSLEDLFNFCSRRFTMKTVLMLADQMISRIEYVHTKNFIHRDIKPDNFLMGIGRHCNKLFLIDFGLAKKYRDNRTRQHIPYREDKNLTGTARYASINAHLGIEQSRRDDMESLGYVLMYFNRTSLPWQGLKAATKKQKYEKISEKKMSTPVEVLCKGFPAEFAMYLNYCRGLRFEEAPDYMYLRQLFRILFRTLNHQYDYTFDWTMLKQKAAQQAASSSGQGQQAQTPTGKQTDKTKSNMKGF
T1 sequence (Q16566 whole entry, looked up): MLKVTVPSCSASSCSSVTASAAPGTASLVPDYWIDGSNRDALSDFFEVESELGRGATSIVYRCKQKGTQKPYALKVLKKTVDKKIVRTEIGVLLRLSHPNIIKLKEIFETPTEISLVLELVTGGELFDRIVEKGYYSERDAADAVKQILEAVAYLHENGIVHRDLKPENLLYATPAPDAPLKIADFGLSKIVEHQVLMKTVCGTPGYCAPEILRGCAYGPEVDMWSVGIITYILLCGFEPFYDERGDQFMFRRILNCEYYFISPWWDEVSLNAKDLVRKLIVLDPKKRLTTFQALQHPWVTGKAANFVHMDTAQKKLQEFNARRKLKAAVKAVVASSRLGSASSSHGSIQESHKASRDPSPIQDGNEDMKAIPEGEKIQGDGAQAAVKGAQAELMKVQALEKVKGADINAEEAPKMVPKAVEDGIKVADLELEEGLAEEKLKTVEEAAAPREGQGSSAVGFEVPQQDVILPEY
T10 sequence (O75116 whole entry): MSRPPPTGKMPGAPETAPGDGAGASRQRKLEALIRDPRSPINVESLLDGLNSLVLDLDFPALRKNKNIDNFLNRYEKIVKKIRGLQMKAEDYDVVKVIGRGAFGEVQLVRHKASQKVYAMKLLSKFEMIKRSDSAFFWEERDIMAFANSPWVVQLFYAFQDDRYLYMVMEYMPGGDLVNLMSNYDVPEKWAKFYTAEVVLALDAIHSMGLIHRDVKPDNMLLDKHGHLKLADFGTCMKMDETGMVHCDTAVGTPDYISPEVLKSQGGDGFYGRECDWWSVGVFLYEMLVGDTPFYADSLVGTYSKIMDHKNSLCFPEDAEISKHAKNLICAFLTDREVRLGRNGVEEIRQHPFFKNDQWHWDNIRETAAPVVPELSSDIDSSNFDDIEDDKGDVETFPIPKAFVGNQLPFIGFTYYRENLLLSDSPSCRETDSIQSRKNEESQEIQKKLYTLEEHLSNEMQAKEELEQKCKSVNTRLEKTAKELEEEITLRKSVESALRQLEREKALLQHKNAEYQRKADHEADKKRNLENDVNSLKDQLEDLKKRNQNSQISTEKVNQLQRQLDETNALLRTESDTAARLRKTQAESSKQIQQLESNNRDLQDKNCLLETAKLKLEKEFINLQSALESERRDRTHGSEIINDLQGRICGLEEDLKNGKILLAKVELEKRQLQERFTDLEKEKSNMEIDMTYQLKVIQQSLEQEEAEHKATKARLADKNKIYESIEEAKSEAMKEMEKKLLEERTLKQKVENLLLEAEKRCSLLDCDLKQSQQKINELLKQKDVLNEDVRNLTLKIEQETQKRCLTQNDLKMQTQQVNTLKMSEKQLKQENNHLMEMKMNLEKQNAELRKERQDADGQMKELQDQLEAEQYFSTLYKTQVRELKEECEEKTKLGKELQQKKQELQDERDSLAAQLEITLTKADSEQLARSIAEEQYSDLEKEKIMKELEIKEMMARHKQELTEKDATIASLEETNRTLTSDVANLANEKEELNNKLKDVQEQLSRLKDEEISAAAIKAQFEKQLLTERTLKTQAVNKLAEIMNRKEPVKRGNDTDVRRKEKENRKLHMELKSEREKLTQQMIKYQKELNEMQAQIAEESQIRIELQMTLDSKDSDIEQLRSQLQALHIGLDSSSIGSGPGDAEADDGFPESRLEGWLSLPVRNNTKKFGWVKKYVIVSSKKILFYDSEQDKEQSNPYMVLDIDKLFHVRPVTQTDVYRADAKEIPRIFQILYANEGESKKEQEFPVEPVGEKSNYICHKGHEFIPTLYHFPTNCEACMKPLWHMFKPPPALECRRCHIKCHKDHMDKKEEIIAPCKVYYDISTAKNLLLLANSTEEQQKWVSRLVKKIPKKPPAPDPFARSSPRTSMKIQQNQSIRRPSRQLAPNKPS
T6 sequence (P49840 whole entry): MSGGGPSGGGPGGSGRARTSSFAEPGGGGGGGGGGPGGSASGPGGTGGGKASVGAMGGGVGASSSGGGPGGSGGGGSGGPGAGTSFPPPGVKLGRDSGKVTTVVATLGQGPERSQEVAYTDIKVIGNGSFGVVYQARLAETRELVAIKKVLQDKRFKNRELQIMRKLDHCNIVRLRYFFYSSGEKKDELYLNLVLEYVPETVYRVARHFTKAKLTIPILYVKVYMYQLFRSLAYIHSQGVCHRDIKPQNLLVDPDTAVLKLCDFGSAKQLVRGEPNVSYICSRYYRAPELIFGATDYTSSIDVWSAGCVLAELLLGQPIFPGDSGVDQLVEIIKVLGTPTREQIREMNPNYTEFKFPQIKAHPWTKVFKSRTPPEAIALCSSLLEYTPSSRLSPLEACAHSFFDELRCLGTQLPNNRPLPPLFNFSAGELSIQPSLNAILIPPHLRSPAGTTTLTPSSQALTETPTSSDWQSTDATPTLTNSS
T8 sequence (Q14680 whole entry): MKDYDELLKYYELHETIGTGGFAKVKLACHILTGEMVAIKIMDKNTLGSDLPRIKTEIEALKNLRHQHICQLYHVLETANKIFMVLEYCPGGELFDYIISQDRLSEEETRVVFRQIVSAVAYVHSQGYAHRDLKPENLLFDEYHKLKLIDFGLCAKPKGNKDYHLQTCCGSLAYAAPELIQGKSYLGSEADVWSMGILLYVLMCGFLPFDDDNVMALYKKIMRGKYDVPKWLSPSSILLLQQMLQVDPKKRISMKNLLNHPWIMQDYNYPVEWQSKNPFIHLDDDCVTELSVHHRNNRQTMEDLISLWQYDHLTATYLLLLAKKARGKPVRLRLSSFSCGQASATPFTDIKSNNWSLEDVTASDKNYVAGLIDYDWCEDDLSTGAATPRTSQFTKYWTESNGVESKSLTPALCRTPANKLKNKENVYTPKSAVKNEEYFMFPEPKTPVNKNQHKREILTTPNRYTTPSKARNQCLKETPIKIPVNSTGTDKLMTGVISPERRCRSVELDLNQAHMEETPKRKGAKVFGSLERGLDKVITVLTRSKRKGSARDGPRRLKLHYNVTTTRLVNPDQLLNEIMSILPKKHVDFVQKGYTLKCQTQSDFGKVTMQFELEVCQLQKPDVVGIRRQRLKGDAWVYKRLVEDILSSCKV
T5 sequence (P16591 whole entry): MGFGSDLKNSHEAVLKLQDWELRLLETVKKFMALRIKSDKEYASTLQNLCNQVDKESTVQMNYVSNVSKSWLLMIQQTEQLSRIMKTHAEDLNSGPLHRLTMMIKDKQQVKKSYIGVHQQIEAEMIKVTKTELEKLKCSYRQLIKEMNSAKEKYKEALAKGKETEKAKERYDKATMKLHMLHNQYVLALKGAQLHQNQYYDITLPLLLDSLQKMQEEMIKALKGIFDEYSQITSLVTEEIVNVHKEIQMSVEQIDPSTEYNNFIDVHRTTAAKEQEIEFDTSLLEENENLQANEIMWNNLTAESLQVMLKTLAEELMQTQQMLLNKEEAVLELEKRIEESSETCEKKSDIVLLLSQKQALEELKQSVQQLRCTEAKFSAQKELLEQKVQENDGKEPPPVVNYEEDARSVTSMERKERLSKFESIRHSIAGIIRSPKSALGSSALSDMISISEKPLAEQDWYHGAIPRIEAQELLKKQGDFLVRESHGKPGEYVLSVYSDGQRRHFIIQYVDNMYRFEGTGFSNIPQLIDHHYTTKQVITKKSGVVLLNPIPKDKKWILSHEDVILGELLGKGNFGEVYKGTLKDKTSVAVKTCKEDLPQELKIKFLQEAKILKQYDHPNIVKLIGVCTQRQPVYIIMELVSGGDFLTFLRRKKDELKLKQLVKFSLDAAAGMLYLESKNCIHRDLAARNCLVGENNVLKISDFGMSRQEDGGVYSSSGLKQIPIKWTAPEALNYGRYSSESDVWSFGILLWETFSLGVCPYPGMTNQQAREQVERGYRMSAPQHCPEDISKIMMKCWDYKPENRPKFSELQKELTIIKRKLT

Turning to `Clc1cc(NCC2CC2)c2ncc(-c3ccc4[nH]ncc4c3)n2n1` [compound 2, 6-Chloro-N-(cyclopropylmethyl)-3-(1H-indazol-5-yl)imidazo[1,2-b]pyridazin-8-amine], the remaining binding at 1 µM on CAMK4 worked out at 100%; on CSNK1A1, 100%; at ERBB2 it was 100%; on ERK2, 92%; on FER it was 98%; on GSK3A it was 93%. For the same compound, the remaining binding at 1 µM at LYN is 92%; at MELK it was 35%; on NIM1 it was 97%; on ROCK2, 31%; on SgK110, 100%; on YSK4, 45%.

For the compound `O=C(CN1CCOCC1)N[C@H]1CC[C@H](Nc2cc(Cl)nn3c(-c4ccc5[nH]ncc5c4)cnc23)CC1` [compound 26], the remaining binding at 1 µM stood at 100% at CAMK4; 58% at CSNK1A1; 97% on ERBB2; 93% at ERK2; 100% at FER; 100% at GSK3A. Moreover, the remaining binding at 1 µM at LYN was found to be 96%; at MELK it was 16%; on NIM1 it was 91%; on ROCK2, 21%; on SgK110, 100%; at YSK4, 23%.

Consider `CN1CCC(CNc2cc(Cl)nn3c(-c4cc5nc(Nc6ccccc6)[nH]c5cc4F)cnc23)CC1` [compound 31, 6-Chloro-3-(6-fluoro-2-(phenylamino)-1H-benzo[d]imidazol-5-yl)-N-((1-methylpiperidin-4-yl)methyl)imidazo[1,2-b]pyridazin-8-amine], for which the remaining binding at 1 µM at CAMK4 stood at 100%; on CSNK1A1 it was 97%; on ERBB2 it was 84%; at ERK2, 99%; at FER, 82%; at GSK3A it was 84%. For the same compound, the remaining binding at 1 µM at LYN amounted to 95%; on MELK, 96%; at NIM1, 77%; at ROCK2 it was 100%; on SgK110, 100%; on YSK4, 77%.
